The results in this text go back to US12714754B2, “Delivery of cyclic compound by using carrier” (priority 2018, dated 2026).

Molecules are shown by their SMILES.

As usually defined, the IC50 is the concentration at which inhibition is half-maximal. Lower therefore signals greater potency.

The subject of data set [1] is subcutaneous tumor model mice (B×PC3). The data set is described as follows: Antitumor effect on tumor-bearing mice. The data set is classed as in vivo. Particulars: 1.5 mg/kg intraperitoneally. As for the experimental part:
A Val-encapsulating polymeric micelle solution prepared by using PEG-P(Asp-BH) (administration amount of Val: 1.5 mg/kg), a valinomycin solution (1.5 mg/kg), or a gemcitabine solution (80 mg/kg) was intravenously administered (only the valinomycin solution was intraperitoneally administered) to the tail vein of subcutaneous tumor model mice (B×PC3) on day 0, day 2, and day 4, and the sizes of the tumors and the body weights of the mice after lapses of various times were measured (n=4).

The subject of the next data set is PANC-1. The experiment in a line: Toxicity test against cultured cells (CCK-8). Particulars: Homo sapiens, 48 hours, Val concentration, cell survival by CCK-8. Format: cell-based. As for the experimental part:
(§1) Human pancreatic adenocarcinoma cells (B×PC3 cells, Panc-cells, or MiaPaCa cells) were seeded into a 96-well plate (5,000 cells/well). After 24 hours, a Val-encapsulating polymeric micelle solution prepared by adding 0.3 equivalent of Val to PEG-P(Asp-BH) or Val alone was added at various Val concentrations. After 48 hours, the cells were washed with PBS, and a medium was added. After that, Cell Counting Kit-8 (CCK-8, 10 μL/well) was added to the medium, and 30 minutes later, UV absorbance at 450 nm was measured.

Another data set has as its system BxPC3. The data set is described as follows: Toxicity test against cultured cells (CCK-8). Particulars: Homo sapiens, BXPC-3, 48 hours, Val concentration, cell survival by CCK-8. The data set is classed as cell-based. The protocol: as §1
A further data set relates to MiaPaCa. The data set is described as follows: Toxicity test against cultured cells (CCK-8). The data set is classed as cell-based. The conditions noted are these: Homo sapiens, MIA PaCa-2, 48 hours, Val concentration, cell survival by CCK-8. The protocol:
as §1

As for `CC(C)[C@@H]1NC(=O)[C@H](C)OC(=O)[C@@H](C(C)C)NC(=O)[C@@H](C(C)C)OC(=O)[C@H](C(C)C)NC(=O)[C@H](C)OC(=O)[C@@H](C(C)C)NC(=O)[C@@H](C(C)C)OC(=O)[C@H](C(C)C)NC(=O)[C@H](C)OC(=O)[C@@H](C(C)C)NC(=O)[C@@H](C(C)C)OC1=O` [Val, valinomycin], the “death of all the mice, time after the initial administration” value in data set [1] is no more than 24 h. The half-inhibitory concentration (IC50) in the data set on PANC-1 was 8.3 nM; with BxPC3, 12.5 nM; in the data set with MiaPaCa it was 23.2 nM.
